In assay [1] the test system is Staphylococcus aureus 6538. As to the kind of experiment: High resolution minimum inhibitory concentration (HRMIC) test, Gram-positive bacterium. The format is cell-based. The note with it: for Activity against Gram-positive test organism (in words): HRMIC test; for MIC: M9GY, 10^6 CFU/ml, 30° C., 24 hours, read-out: MIC (ppm) Average, Gram-positive. The method, then: (§1) The five alkylation products from Route B, as described in Table 1, were tested for their ability to inhibit the growth of a Gram-positive bacterium, Staphylococcus aureus 6538 and a Gram-negative bacterium, Pseudomonas aeruginosa 13388 in a high resolution minimum inhibitory concentration (HRMIC) test. Two of the compounds showing biological activity were also tested for activity against sulfate-reducing bacteria (SRB). HR MIC Test Method: Varying amounts of test compound dissolved in DMSO were added to […] in a 96-well microtiter plate. Ten-fold serial dilutions were performed on a Biomek 2000 Workstation to obtain a range of closely spaced concentrations of biocide as illustrated in Table 2. A cell suspension of either Pseudomonas aeruginosa 13388 or Staphylococcus aureus 6538, adjusted to provide 10^6 CFU/ml in each well, was added to each microtiter plate. Kathon® WT biocide and Hyamine® 3500 biocide (dimethyl benzyl ammonium chloride) were included in the test for comparison. The microtiter plates were incubated at 30° C. for 24 hours and were then checked for the presence or absence of microbial growth in each well. […] Each compound was evaluated in duplicate on three separate days. [table]

Assay [2] concerns Pseudomonas aeruginosa 13388. As to the kind of experiment: High resolution minimum inhibitory concentration (HRMIC) test, Gram-negative bacterium. The settings on record: for Activity against Gram-negative test organism (in words): HRMIC test; for MIC: M9GY, 10^6 CFU/ml, 30° C., 24 hours, read-out: MIC (ppm) Average, Gram-negative. Type of assay: cell-based. The method, then:
as §1

This note sets out measurements from US6727387B2, “Quaternary ammonium salts having a tertiary alkyl group” (Rohm and Haas Company, priority 2001, dated 2004).

In general, MIC refers to the least concentration at which growth counts as inhibited.

Consider `CC(C)(C)CC(C)(C)[N+](C)(C)C.[Br-]` [TOA Br^−, N,N,N-Trimethyl t-octyl ammonium bromide], for which, in assay [1], the “Activity against Gram-positive test organism (in words)” value is given as “showed no activity” and the MIC is more than 1000 µg/mL. In assay [2], the “Activity against Gram-negative test organism (in words)” value was “showed no activity” and the MIC was more than 1000 µg/mL.

As to `CC(C)(C)CC(C)(C)[N+](C)(C)C.[I-]` [TOA I^−, N,N,N-Trimethyl t-octylammonium iodide], in assay [1], the “Activity against Gram-positive test organism (in words)” value is “showed no activity” and the MIC was more than 1000 µg/mL. In addition, in assay [2], the “Activity against Gram-negative test organism (in words)” value is listed as “showed no activity” and the MIC was more than 1000 µg/mL.
